In ChEMBL document CHEMBL1153519, “Characterization of novel selective H1-antihistamines for clinical evaluation in the treatment of insomnia” (J Med Chem, 2009):
Calls of active or inactive are those of the source. The calls are words filed in the database; no cut-off is given here.

Assays:
Rattus norvegicus [1] = assay: Effect on sleep-awake pattern in CD IGS rat model of insomnia assessed as latency to 20 secs REM sleep at 60 mg/kg, po by EEG/EMG study relative to vehicle control; type: functional
Rattus norvegicus [2] = assay: Increase in REM sleep in CD IGS rat model of insomnia at 60 mg/kg, po after 4 hrs by EEG/EMG study relative to vehicle control; type: functional
[3] = target: T1, 5-hydroxytryptamine receptor 2A (Homo sapiens, UniProt P28223); assay: Displacement of [3H]ketanserin from human 5HT2A receptor expressed in HEK293 Flp-In cells by liquid scintillation counting; type: cell-based
Rattus norvegicus [4] = assay: Effect on sleep-awake pattern in CD IGS rat model of insomnia assessed as latency to 1 min NREM sleep at 60 mg/kg, po by EEG/EMG study relative to vehicle control; type: functional
[5] = target: Histamine H3 receptor (Homo sapiens) (UniProt Q9Y5N1); assay: Displacement of [3H]R-alpha-methylhistamine from human histamine H3 receptor expressed in CHO Flp-In cells by liquid scintillation counting; type: cell-based
Rattus norvegicus [6] = assay: Increase in NREM sleep in CD IGS rat model of insomnia at 60 mg/kg, po after 4 hrs by EEG/EMG study relative to vehicle control; type: functional
Cytochrome P450 2D6 = Cytochrome P450 2D6 (Homo sapiens, UniProt P10635); assay: Inhibition of recombinant CYP2D6 in presence of NADPH generating system
in vitro [7] = settings: human, liver microsomes
Histamine H1 receptor = Histamine H1 receptor (Homo sapiens, UniProt P35367); assay: Displacement of [3H]pyrilamine from human histamine H1 receptor expressed in CHO Flp-In cells by liquid scintillation counting; type: cell-based
[8] = target: T2, Muscarinic acetylcholine receptor M1 (Homo sapiens, UniProt P11229); assay: Displacement of [3H]N-methylscopolamine from human muscarinic M1 receptor expressed in CHO Flp-In cells by liquid scintillation counting; type: cell-based
T2 sequence (P11229 whole entry): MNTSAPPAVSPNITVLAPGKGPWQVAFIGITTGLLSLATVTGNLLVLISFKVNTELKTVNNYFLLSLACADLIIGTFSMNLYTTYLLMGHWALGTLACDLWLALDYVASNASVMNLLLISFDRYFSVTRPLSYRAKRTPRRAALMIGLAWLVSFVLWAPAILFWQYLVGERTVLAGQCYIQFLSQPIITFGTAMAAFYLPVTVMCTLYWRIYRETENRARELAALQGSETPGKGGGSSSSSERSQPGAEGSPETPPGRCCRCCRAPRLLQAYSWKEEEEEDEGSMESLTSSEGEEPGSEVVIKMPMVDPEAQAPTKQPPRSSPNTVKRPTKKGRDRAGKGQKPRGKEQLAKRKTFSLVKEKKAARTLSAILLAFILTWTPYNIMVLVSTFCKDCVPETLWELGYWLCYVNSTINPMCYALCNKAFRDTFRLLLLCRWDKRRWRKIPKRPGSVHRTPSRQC

[9] = target: T1, 5-hydroxytryptamine receptor 2A; assay: Displacement of [3H]ketanserin from human 5HT2A receptor expressed in HEK293 Flp-In cells at 10 uM by liquid scintillation counting; type: cell-based
Cytochrome P450 3A4 = Cytochrome P450 3A4 (Homo sapiens, UniProt P08684); assay: Inhibition of recombinant CYP3A4 in presence of NADPH generating system; type: ADME; settings: recombinant enzyme
[10] = target: Voltage-gated inwardly rectifying potassium channel KCNH2 (Homo sapiens, UniProt Q12809); assay: Inhibition of human ERG expressed in HEK293 cells by patch-clamp technique
[11] = Half life in human; type: ADME, organism-based; settings: in vivo
[12] = Elimination half life in human at 50 mg, po; type: ADME, organism-based; settings: in vivo, read-out: beta t1/2 (converted)
[13] = target: Muscarinic acetylcholine receptor M3 (Homo sapiens, UniProt P20309); assay: Displacement of [3H]N-methylscopolamine from human muscarinic M3 receptor expressed in CHO Flp-In cells by liquid scintillation counting; type: cell-based
Cynomolgus monkey = assay: Cardiotoxicity in conscious cynomolgus monkey assessed as decrease in heart rate up to 200 mg/kg administered as escalated dose with 1 week washout period between doses by telemetry study; type: toxicity, organism-based, Macaca fascicularis; parameters: dose 200 mg/kg; scale not given: the % may be the effect or the level left; settings: in vivo, 168 h
Rattus norvegicus [14] = assay: Effect on sleep-awake pattern in CD IGS rat model of insomnia assessed as latency to 1 min NREM sleep at 30 mg/kg, po by EEG/EMG study relative to vehicle control; type: functional
Rattus norvegicus [15] = assay: Increase in NREM sleep in CD IGS rat model of insomnia at 30 mg/kg, po after 4 hrs by EEG/EMG study relative to vehicle control; type: functional
Rattus norvegicus [16] = assay: Effect on sleep-awake pattern in CD IGS rat model of insomnia assessed as latency to 20 secs REM sleep at 30 mg/kg, po by EEG/EMG study relative to vehicle control; type: functional
[17] = Drug level in rat brain at 30 mg/kg after 4 hrs by LC-MS-MS analysis; type: ADME, organism-based; parameters: dose 30 mg/kg; settings: read-out: Drug uptake
[18] = Plasma concentration in rat at 30 mg/kg, po after 1 hr
[19] = Systemic clearance in rat by LC-MS-MS analysis; settings: human, in vivo
Rattus norvegicus [20] = assay: Increase in REM sleep in CD IGS rat model of insomnia at 30 mg/kg, po after 4 hrs by EEG/EMG study relative to vehicle control; type: functional
in vitro [21] = settings: rat, liver microsomes
[22] = Drug level in rat brain at 30 mg/kg after 1 hr by LC-MS-MS analysis; type: ADME, organism-based; parameters: dose 30 mg/kg; settings: read-out: Drug uptake

Histamine H1 receptor, sequence (P35367 whole entry): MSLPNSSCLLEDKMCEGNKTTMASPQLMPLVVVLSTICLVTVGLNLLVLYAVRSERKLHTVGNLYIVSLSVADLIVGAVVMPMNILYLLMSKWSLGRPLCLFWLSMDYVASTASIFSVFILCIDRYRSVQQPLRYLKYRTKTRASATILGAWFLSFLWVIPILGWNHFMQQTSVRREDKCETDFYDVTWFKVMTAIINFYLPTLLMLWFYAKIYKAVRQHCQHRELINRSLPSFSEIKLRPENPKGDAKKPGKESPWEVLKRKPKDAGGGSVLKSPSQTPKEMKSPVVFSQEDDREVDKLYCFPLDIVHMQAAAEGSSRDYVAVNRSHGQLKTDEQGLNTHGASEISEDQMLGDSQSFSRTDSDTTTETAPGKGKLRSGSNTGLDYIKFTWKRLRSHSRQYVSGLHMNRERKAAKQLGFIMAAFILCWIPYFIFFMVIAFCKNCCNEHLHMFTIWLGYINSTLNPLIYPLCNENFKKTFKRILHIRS
Cytochrome P450 2D6, sequence (P10635 whole entry): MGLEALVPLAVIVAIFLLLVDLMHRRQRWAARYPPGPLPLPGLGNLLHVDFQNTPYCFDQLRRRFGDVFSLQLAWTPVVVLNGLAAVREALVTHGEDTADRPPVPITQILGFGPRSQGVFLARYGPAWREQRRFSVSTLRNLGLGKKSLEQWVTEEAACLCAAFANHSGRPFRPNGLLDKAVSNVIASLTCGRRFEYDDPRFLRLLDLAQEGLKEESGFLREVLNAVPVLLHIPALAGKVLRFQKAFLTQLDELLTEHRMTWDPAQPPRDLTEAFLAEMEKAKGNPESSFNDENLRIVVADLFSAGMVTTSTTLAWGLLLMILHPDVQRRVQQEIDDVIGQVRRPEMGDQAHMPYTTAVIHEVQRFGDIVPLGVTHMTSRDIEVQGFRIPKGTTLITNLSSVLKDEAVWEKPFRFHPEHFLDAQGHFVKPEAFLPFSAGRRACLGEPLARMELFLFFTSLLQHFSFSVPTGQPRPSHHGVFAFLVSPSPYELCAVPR
Histamine H3 receptor (Homo sapiens), sequence (Q9Y5N1 whole entry): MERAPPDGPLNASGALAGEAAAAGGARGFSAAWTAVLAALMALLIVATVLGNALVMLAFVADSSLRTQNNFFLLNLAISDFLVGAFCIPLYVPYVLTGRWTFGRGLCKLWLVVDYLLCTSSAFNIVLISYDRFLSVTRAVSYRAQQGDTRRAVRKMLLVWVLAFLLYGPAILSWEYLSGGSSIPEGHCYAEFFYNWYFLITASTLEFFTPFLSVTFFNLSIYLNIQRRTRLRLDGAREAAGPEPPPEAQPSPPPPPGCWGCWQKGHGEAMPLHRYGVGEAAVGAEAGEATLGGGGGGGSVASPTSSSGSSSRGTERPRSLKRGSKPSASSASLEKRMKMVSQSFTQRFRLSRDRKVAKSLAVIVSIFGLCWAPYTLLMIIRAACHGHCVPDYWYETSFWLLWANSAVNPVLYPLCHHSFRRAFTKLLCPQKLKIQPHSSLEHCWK
T1 sequence (P28223 whole entry): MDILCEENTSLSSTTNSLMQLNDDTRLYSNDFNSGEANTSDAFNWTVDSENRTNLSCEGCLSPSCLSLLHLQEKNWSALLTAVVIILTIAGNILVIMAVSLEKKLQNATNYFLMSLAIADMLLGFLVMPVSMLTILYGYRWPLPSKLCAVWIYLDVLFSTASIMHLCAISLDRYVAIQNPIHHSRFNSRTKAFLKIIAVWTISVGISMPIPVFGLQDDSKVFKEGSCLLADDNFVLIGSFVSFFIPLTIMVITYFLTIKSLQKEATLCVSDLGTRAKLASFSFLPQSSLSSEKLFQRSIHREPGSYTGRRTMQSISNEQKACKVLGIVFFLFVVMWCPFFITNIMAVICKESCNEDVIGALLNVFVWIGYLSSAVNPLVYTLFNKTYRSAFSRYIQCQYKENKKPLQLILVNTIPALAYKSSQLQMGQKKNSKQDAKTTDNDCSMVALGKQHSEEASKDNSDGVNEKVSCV
Voltage-gated inwardly rectifying potassium channel KCNH2, sequence (Q12809 whole entry): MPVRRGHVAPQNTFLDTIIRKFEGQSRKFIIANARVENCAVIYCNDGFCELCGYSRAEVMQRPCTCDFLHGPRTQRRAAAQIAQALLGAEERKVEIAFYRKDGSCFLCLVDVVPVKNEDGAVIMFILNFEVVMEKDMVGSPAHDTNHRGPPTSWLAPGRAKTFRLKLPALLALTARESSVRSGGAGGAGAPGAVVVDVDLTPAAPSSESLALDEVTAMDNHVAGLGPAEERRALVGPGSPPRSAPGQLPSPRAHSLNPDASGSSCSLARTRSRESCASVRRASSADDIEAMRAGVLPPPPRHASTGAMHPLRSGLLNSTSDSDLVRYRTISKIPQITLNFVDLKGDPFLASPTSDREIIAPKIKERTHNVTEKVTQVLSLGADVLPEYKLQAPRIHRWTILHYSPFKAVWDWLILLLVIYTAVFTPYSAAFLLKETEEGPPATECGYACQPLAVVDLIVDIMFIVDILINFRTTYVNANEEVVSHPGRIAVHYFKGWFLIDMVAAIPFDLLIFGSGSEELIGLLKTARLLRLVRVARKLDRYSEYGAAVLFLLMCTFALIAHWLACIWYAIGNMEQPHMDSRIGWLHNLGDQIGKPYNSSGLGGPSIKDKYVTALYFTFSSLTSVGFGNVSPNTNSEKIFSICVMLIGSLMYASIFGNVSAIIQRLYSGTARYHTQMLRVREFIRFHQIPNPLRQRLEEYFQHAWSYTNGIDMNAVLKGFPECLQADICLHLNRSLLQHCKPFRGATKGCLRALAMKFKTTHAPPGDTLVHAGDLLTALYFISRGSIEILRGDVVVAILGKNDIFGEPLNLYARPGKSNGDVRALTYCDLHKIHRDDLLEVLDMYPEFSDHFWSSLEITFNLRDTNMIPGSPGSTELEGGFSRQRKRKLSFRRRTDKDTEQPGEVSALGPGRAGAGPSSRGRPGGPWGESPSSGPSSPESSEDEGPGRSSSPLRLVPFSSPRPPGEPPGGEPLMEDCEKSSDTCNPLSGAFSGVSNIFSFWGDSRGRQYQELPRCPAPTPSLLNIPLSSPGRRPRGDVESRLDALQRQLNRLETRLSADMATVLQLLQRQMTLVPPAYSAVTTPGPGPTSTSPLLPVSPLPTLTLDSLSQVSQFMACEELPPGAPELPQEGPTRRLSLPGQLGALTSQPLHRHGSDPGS
Muscarinic acetylcholine receptor M3, sequence (P20309 whole entry): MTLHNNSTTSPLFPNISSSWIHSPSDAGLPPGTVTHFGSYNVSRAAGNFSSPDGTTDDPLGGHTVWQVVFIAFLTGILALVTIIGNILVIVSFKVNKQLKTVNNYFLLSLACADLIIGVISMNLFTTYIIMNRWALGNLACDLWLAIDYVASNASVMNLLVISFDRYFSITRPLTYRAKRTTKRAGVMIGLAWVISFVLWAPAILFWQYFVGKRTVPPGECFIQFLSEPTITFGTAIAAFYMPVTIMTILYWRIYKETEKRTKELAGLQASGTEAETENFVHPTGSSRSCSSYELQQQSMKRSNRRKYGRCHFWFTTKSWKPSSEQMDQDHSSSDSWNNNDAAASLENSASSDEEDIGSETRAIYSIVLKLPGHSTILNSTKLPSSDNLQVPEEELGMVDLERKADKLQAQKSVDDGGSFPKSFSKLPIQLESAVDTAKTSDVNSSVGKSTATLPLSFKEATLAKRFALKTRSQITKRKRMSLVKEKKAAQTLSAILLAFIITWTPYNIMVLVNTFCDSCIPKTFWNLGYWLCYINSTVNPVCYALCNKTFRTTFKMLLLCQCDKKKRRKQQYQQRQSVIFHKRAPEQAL
Cytochrome P450 3A4, sequence (P08684 whole entry): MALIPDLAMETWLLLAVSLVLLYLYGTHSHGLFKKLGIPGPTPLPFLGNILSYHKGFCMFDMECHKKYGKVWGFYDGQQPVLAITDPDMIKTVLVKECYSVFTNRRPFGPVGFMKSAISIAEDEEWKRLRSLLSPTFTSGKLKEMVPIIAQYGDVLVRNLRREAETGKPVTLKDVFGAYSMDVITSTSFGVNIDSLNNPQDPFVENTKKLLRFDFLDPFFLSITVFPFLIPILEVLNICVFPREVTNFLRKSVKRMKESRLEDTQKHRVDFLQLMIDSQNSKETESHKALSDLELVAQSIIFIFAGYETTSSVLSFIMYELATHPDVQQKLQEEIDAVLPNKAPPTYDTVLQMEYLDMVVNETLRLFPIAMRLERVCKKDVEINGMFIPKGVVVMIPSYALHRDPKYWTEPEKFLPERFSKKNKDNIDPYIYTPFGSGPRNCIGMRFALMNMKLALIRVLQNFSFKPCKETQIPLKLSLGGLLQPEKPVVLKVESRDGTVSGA

SMILES | Activity (Rattus norvegicus [1]) [%] | Activity (Rattus norvegicus [2]) [%] | Ki [3] [nM] | Activity (Rattus norvegicus [4]) [%] | Activity [5] | Activity (Rattus norvegicus [6]) [%] | IC50 (Cytochrome P450 2D6) [nM] | CLhep predicted at 1 h, 1 µM (in vitro [7]) [mL/min/kg] | Ki (Histamine H1 receptor) [nM] | Ki [8] [nM] | Activity [9] [%] | further results
CN(C)CCC1=C(Cc2cnccn2)c2ccccc2C1 | 92 | 113 | 600 | 79 | inactive | 159 |  |  |  |  |  | 
CN(C)CCc1sc2ccccc2c1Cc1ccc(F)cc1 |  |  | 90 |  | inactive |  | 200 | 16 | 11 | 2000 |  | 
C[C@H](C1=C(CCN(C)C)Cc2ccccc21)c1ccccn1 | 136 | 126 |  | 134 | inactive | 132 | 32500 | 7 | 0.4 | 2400 | 33 | inhibition (INH) (Cytochrome P450 3A4): Not Active; IC50 [10]: 900 nM
CN(C)CCc1sc2ccccc2c1Cc1cnccn1 |  |  |  |  | inactive |  |  |  | 75 |  |  | 
CN(C)CCC1=C(Cc2ccc(F)cc2)c2ccccc2C1 |  |  | 140 |  | inactive |  | 300 | 13 | 0.6 |  |  | 
CC(C1=C(CCN(C)C)Cc2ccccc21)c1ccccn1 (racemic) |  |  |  |  |  |  |  |  |  |  |  | half-life [11]: 5 h; half-life [12]: 18 h
C[C@H](C1=C(CCN(C)C)Cc2ccccc21)c1cnccn1 | 104 | 129 |  | 109 | inactive | 145 |  |  |  |  | 32 | 
C[C@@H](c1ccccn1)c1c(CCN(C)C)oc2ccccc12 |  |  |  |  | inactive |  |  | 10 | 0.9 | 320 | 62 | Ki [13]: 76 nM
C[C@@H](c1ccccn1)c1c(CCN(C)C)sc2ccccc12 |  |  |  |  | inactive |  | 28200 | 10 | 4 | 5300 | 31 | Activity (Cynomolgus monkey): 16%; Activity (Rattus norvegicus [14]): 124%; Activity (Rattus norvegicus [15]): 142%; Activity (Rattus norvegicus [16]): 138%; concentration at 4 h [17]: 23 ng/mL; concentration at 1 h [18]: 4 ng/mL; clearance [19]: 5.2 mL/min/kg; Activity (Rattus norvegicus [20]): 167%; CLint scaled at 1 h, 1 µM (in vitro [21]): 2300 mL/min/kg; IC50 [10]: 1400 nM; concentration at 1 h [22]: 29 ng/mL
Cc1ccc(-c2nc3ccc(C)cn3c2CC(=O)N(C)C)cc1 [ZOLPIDEM] |  |  |  |  |  |  |  |  |  |  |  | Activity (Rattus norvegicus [14]): 18%; Activity (Rattus norvegicus [15]): 220%; Activity (Rattus norvegicus [16]): 199%; Activity (Rattus norvegicus [20]): 42%
